In patent US11578074B2, “Nitrogenous heterocyclic compound, preparation method, intermediate, composition, and application” (SHANGHAI PHARMACEUTICALS HOLDING CO., LTD., priority 2017, dated 2023):

What was measured:
EGFR kinase = EGFR kinase (Homo sapiens, UniProt P00533); assay: EGFR/ErbB2 enzymatic experiment (HTRF kinEASE-TK), EGFR; format: biochemical; details: EGFR kinase 0.06 units/μL, ATP 1.65 μM; read-out: Kinase IC50 (nM) in vitro EGFR
Protocol: (§1) EGFR/ErbB2 Enzymatic Experiment
(§2) Firstly, 1× reaction buffer required for the kinase was prepared, then 5× Enzymatic buffer (HEPES 20 mM pH 7.0, NaN3 0.1%, BSA 0.05%, sodium orthovanadate 0.5 mM) was diluted in HTRF kinEASE-TK kit by 1 time with deionized water, and 50 nM Supplement Enzymatic buffer (SEB REAGENT), 1 mM MnCl2, 5 mM MfCl2, 1 mM DTT were added. Secondly, 5× compound was prepared, and 10 mM test compound storage solution was diluted in multiple steps with DMSO in a 96-well compound plate to prepare 100× compound as an initial concentration, which was then used as the first concentration to carry out a 3-fold gradient dilution with DMSO to obtain a total of 10 concentrations. Then 1 μL of gradient diluent was added to 19 μL of 1× reaction buffer to prepare 5× compound for later use. Then 2 μL of 5× compound was transferred from the 96-well plate into a 384-well plate. To the compound-free control wells was added 2 μL of the following liquid: 19 μL of 1× reaction buffer with addition of 1 μL of DMSO. To the blank control well was added 2 μL of 250 mM EDTA. […] In the fourth step of reaction termination, HTRF Detection buffer was used to prepare a mixture of 2×TK Antibody-EU (K) and Sa-XL665, and the amount of TK Antibody-EU (K) was 5 μL per well. After the enzyme reaction was carried out for 30 minutes, 10 μL of the above liquid was added to a 384-well plate, and the reaction was carried out at room temperature for 1 hour. […] RFU665 nM and RFU620 nM were measured, and RFU665 nM/RFU620 nM×10000 was used as final data for analysis.

[1] = test system: BT-474 (human breast cancer cell); assay: In vitro proliferation inhibition assay of cell lines (CellTiter-Glo), BT-474; format: cell-based; details: BT-474 cells, 72 hours
Protocol: (§3) In Vitro Proliferation Inhibition Assay of Cell Lines
1. […] 2. Dosing to the cells: on the second day of the experiment, the microplate was taken out from the incubator, and 10 μL of 10× compound was added to each well of the microplate, setting 2 duplicate wells for each drug concentration and 9 dosing concentrations for each compound. According to different cell lines, the initial concentration of each compound was different. Upon completion of addition, the microplate was placed under the conditions of 37° C. and 5% CO2 for 72 hours. 3. Data acquisition: the microplate was taken out from the incubator and was allowed to equilibrate at room temperature for 30 minutes. 100 μL of CellTiter-Glo® Luminescent Cell Viability Assay reaction solution which had been equilibrated at room temperature was added to each well, and the reaction solution was shaken at 1300 rpm for 2 minutes at room temperature. After that, the microplate was placed in HERAEUS Multifuge X1R centrifuge, centrifuged at 2000 rpm for 1 minute, and allowed to equilibrate at room temperature for 10 minutes. The fluorescence signal value was measured on EnVision™.

[2] = test system: N87 (human gastric cancer cell NCI-N87); assay: In vitro proliferation inhibition assay of cell lines (CellTiter-Glo), N87; format: cell-based; details: N87 cells, 72 hours
Protocol: as §3
1. Cell culture and inoculation: on the first day of the experiment, normal cultured cells were taken, and in the exponential growth state, after digestion and dispersion, the cell density was then adjusted to 8.8×10^4 cells/mL for BT-474, and 6.6×10^4 cells/mL for N87, and 90 μL of which were inoculated to each well of a 96-well cell culture plate; after the inoculation was completed, the microplate was cultured under the conditions of 37° C. and 5% CO2 overnight. 2. Dosing to the cells: on the second day of the experiment, the microplate was taken out from the incubator, and 10 μL of 10× compound was added to each well of the microplate, setting 2 duplicate wells for each drug concentration and 9 dosing concentrations for each compound. According to different cell lines, the initial concentration of each compound was different. Upon completion of addition, the microplate was placed under the conditions of 37° C. and 5% CO2 for 72 hours. 3. Data acquisition: the microplate was taken out from the incubator and was allowed to equilibrate at room temperature for 30 minutes. 100 μL of CellTiter-Glo® Luminescent Cell Viability Assay reaction solution which had been equilibrated at room temperature was added to each well, and the reaction solution was shaken at 1300 rpm for 2 minutes at room temperature. After that, the microplate was placed in HERAEUS Multifuge X1R centrifuge, centrifuged at 2000 rpm for 1 minute, and allowed to equilibrate at room temperature for 10 minutes. The fluorescence signal value was measured on EnVision™.

ErbB2 kinase = molecular target: T1, ErbB2 kinase (Homo sapiens, UniProt P04626); assay: EGFR/ErbB2 enzymatic experiment (HTRF kinEASE-TK), ErbB2; format: biochemical; details: ErbB2 kinase 0.06 ng/μL, ATP 4 μM; read-out: Kinase IC50 (nM) in vitro ErbB2
T1 construct: The final concentration of ErbB2 kinase was 0.06 ng/μL
Protocol: as §1, §2

Sequence of EGFR kinase (P00533 25-1210): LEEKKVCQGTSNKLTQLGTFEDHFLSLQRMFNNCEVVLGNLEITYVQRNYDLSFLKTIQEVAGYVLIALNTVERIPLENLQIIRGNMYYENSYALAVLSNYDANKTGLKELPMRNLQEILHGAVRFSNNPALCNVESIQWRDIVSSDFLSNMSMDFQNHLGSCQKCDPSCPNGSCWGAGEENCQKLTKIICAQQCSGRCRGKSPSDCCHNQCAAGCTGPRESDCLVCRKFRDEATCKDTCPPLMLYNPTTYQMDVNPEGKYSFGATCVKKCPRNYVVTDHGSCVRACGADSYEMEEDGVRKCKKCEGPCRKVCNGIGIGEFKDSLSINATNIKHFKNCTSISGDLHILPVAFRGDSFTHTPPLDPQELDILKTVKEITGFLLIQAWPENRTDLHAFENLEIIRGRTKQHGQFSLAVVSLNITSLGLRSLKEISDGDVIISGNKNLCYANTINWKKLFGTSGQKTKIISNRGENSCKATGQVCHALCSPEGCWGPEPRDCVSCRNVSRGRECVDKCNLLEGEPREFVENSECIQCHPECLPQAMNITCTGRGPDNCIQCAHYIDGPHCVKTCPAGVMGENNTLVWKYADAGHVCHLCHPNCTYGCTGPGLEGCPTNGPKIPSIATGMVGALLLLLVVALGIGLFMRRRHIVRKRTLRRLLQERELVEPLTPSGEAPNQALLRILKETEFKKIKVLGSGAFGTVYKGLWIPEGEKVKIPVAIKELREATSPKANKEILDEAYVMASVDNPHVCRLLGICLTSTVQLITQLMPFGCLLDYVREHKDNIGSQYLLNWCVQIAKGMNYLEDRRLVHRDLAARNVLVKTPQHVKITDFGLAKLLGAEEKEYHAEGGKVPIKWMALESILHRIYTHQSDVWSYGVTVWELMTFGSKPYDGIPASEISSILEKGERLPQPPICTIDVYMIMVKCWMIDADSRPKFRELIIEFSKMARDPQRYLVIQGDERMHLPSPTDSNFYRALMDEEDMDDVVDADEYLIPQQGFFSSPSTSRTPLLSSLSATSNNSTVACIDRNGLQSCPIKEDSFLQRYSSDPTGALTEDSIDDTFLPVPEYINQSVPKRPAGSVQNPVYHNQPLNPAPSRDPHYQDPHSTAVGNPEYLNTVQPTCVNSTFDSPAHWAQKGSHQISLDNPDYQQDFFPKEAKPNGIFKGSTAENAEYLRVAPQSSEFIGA
T1 sequence (P04626 23-1255): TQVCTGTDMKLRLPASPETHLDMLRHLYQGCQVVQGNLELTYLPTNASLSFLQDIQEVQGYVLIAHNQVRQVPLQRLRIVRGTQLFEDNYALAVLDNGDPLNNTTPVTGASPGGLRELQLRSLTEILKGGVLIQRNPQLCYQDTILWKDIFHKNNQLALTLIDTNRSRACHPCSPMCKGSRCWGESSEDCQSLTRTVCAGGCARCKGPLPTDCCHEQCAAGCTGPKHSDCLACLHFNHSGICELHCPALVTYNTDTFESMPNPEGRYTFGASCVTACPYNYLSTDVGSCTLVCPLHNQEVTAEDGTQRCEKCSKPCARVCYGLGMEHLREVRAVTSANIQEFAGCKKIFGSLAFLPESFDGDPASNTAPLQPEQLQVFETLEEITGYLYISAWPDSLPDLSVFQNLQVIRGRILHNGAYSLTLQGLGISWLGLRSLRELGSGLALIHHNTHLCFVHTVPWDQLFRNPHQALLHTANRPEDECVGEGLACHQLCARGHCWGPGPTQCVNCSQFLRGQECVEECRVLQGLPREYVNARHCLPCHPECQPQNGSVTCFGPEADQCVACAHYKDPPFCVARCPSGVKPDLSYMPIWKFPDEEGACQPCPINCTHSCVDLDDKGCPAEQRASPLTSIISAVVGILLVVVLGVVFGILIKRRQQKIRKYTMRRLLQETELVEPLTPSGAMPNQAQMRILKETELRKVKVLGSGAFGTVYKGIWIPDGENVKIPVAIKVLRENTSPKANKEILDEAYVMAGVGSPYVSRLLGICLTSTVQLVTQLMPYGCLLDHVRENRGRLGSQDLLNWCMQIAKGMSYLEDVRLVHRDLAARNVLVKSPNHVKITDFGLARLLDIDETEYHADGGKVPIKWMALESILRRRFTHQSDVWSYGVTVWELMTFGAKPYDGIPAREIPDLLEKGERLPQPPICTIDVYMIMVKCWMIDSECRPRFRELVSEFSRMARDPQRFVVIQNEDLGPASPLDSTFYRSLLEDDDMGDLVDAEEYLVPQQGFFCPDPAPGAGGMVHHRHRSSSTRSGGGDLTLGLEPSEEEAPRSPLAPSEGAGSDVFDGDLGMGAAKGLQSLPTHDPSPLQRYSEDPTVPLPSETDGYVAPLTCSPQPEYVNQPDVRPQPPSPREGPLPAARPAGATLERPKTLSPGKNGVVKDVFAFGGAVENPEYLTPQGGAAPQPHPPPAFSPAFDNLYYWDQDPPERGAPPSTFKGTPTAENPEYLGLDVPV

IC50 (EGFR kinase) [nM] | IC50 [1] [nM] | IC50 [2] [nM] | IC50 (ErbB2 kinase) [nM] | SMILES
156 | 162 | 301 | 17.5 | Cc1cc(Nc2ncnc3ccc(/C=C/C(=O)N(C)C)cc23)ccc1Oc1cc2nncn2cn1 [Final product of Embodiment 15, (E)-3-(4-((4-([1,2,4]triazolo[4,3-c]pyrimidin-7-yloxy)-3-methylphenyl)amino)quinazolin-6-yl)-N,N-dimethylacrylamide]
23.4 | 50.7 | 68.2 | 8.47 | Cc1cc(Nc2ncnc3ccc(NC(=O)/C=C/[C@H]4CCCN4C)cc23)ccc1Oc1ccn2cnnc2c1 [Final product of Embodiment 25]
7.09 | 49.5 | 65.5 | 0.851 | C=CC(=O)N1CCC[C@@H](Nc2ccc3ncnc(Nc4ccc(Oc5cc6nncn6cn5)c(C)c4)c3c2)C1 [Final product of Embodiment 7, (R)-1-(3-((4-((4-([1,2,4]triazolo[4,3-c]pyrimidin-7-yloxy)-3-methylphenyl)amino)quinazolin-6-yl)amino)piperidin-1-yl)propan-2-en-1-one]
3.46 | 54.6 | 94 | 8.25 | Cc1cc(Nc2c(C#N)cnc3ccc(NC(=O)/C=C/[C@H]4CCCN4)cc23)ccc1Oc1cc2nncn2cn1 [Final product of Embodiment 21, (R,E)-N-(4-((4-([1,2,4]triazolo[4,3-c]pyrimidin-7-yloxy)-3-methylphenyl)amino)-3-cyanoquinolin-6-yl)-3-(pyrrolidin-2-yl)acrylamide]
5.29 | 11 | 33.4 | 3.25 | Cc1cc(Nc2ncnc3ccc(NC(=O)C=CC4COCCN4)cc23)ccc1Oc1cc2nncn2cn1 (stereo in doubt) [Final product of Embodiment 28, (E)-N-(4-((4-([1,2,4]triazolo[4,3-c]pyrimidin-7-yloxy)-3-methylphenyl)amino)quinazolin-6-yl)-3-(morpholin-3-yl)acrylamide]
0.514 | 17.7 | 18.9 | 2.67 | COCCOc1cc2ncnc(Nc3ccc(Oc4cc5nncn5cn4)c(C)c3)c2cc1NC(=O)/C=C/[C@H]1CCCN1 [Final product of Embodiment 35]
13.8 | 9.62 | 18.8 | 7.98 | C=CC(=O)Nc1ccc2ncc(C#N)c(Nc3ccc(Oc4cc5nncn5cn4)c(C)c3)c2c1 [Final product of Embodiment 9, N-(4-((4-([1,2,4]triazolo[4,3-c]pyrimidin-7-yloxy)-3-methylphenyl)amino)-3-cyanoquinolin-6-yl)acrylamide]
65.2 | 76 | 66.5 | 220 | Cc1cc(Nc2c(C#N)cnc3ccc(NC(=O)/C=C/[C@H]4CCCN4C)cc23)ccc1Oc1cnc2c(cnn2C)c1 [Final product of Embodiment 31]
– | – | 10 | – | Cc1cc(Nc2ncnc3ccc(NC(=O)/C=C/[C@@H]4CCCN4C)cc23)ccc1Oc1cc2nncn2cn1 [Final product of Embodiment 1-97, (S,E)-N-(4-((4-([1,2,4]triazolo[4,3-c]pyrimidin-7-yloxy)-3-methylphenyl)amino)quinazolin-6-yl)-3-(1-methylpyrrolidin-2-yl)acrylamide]
0.757 | 2.65 | 1.6 | 1.09 | Cc1cc(Nc2ncnc3ccc(NC(=O)/C=C/[C@H]4CCCN4C)cc23)ccc1Oc1cnc2ccnn2c1
0.53 | 1.89 | 1.64 | 1.1 | COCCOc1cc2ncnc(Nc3ccc(Oc4cc5nncn5cn4)c(C)c3)c2cc1NC(=O)/C=C/[C@H]1CCCN1C [Final product of Embodiment 36]
2.21 | 25.7 | 77.5 | 1.61 | Cc1cc(Nc2ncnc3ccc(NC(=O)/C=C/C4COCCN4)cc23)ccc1Oc1cc2nncn2cn1 (stereo not shown) [Final product of Embodiment 27, (E)-N-(4-((4-([1,2,4]triazolo[4,3-c]pyrimidin-7-yloxy)-3-methylphenyl)amino)quinazolin-6-yl)-3-(morpholin-3-yl)acrylamide]
1.5 | 15.4 | 22.6 | 0.689 | Cc1cc(Nc2ncnc3ccc(NC(=O)/C=C/[C@H]4CCCN4C)cc23)ccc1Oc1ccc2nc[nH]c2c1
33.7 | 256 | 692 | 22 | Cc1cc(Nc2ncnc3ccc(/C=C/C(=O)NC4CC4)cc23)ccc1Oc1cc2nncn2cn1 [Final product of Embodiment 16, (E)-3-(4-((4-([1,2,4]triazolo[4,3-c]pyrimidin-7-yloxy)-3-methylphenyl)amino)quinazolin-6-yl)-N-cyclopropylacrylamide]
20.5 | 46.6 | 60.4 | 15.2 | Cc1cc(Nc2ncnc3ccc(NC(=O)/C=C/[C@H]4CCCN4C)cc23)ccc1Oc1cnn2cnnc2c1 [Final product of Embodiment 29, (R,E)-N-(4-((4-([1,2,4]triazolo[4,3-b]pyridazin-7-yloxy)-3-methylphenyl)amino)quinazolin-6-yl)-3-(1-methylpyrrolidin-2-yl) acrylamide]

SMILES | IC50 (EGFR kinase) [nM] | IC50 [1] [nM] | IC50 [2] [nM] | IC50 (ErbB2 kinase) [nM]
CCOc1cc2ncc(C#N)c(Nc3ccc(OCc4ccccn4)c(Cl)c3)c2cc1NC(=O)/C=C/[C@H]1CCCN1C [drawing 239, reference compound] | – | 2.56 | 1.2 | 1.67
CCOc1cc2ncc(C#N)c(Nc3ccc(OCc4ccccn4)c(Cl)c3)c2cc1NC(=O)/C=C/CN(C)C [drawing 240, reference compound] | – | – | 0.82 | –
